Results taken from ChEMBL document CHEMBL1201862, “PubChem BioAssay data set” (2004).
Activity calls are given as the source filed them.

Columns and labels:
[1] = target: T1, Luciferin 4-monooxygenase (Photinus pyralis, UniProt P08659); test: Counter Screen for Luciferase-based Assay Positives. [Related pubchem assays: 620, 618, 411 ]
[2] = target: T1, Luciferin 4-monooxygenase; test: firefly luciferase enzyme inhibitors, dose response, biochemical, luminescence (AID 1891)
[3] = Luminescence Cell-Based Dose Confirmation HTS to Identify Inhibitors of Platelet Dense Granule Release. [Related pubchem assays: 1663 (Primary HTS), 1678 (Summary of Project)]; type: functional
HT-1080 = test: cytotoxicity in HT1080 fibrosarcoma cells, cell-based, fluorescence readout (AID 620); type: functional; conditions: Homo sapiens
[4] = target: T2, RNA-binding protein pos-1 (Caenorhabditis elegans, UniProt G5EF15); test: inhibitors of POS-1/mex-3 RNA binding, dose response, biochemical, fluorescence polarization (AID 1964);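 note: purified POS-1 fused to maltose binding protein made in E. coli; potency of compounds blocking POS-1 binding to fluorescent RNA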
T2 sequence (G5EF15 whole entry): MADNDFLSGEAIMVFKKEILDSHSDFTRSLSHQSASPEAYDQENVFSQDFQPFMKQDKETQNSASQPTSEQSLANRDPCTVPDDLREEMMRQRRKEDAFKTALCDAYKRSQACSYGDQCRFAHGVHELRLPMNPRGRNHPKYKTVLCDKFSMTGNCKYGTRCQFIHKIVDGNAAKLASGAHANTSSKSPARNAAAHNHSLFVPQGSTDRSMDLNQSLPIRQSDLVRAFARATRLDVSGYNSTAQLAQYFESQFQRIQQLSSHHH

[5] = target: T3, Zinc finger protein mex-5 (Caenorhabditis elegans, UniProt Q9XUB2); test: MEX-5/TCR-2 RNA interaction inhibitors, dose response, biochemical, C. elegans, fluorescence polarization (AID 1960)
T3 sequence (Q9XUB2 whole entry): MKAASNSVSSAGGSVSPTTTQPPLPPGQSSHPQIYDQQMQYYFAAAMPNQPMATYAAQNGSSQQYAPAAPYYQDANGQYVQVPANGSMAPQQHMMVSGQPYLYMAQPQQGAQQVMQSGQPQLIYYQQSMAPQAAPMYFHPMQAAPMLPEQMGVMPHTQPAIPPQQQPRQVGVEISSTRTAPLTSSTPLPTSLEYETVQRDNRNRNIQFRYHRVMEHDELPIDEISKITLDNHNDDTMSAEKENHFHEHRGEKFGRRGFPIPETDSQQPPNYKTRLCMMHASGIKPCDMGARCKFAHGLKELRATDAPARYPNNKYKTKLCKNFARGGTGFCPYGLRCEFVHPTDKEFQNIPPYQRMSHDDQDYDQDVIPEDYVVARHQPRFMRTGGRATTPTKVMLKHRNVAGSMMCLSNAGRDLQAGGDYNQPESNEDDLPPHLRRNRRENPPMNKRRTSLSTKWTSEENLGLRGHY

[6] = target: T4, Voltage-gated N-type calcium channel alpha-1B subunit/Amyloid beta A4 precursor protein-binding family A member 1 (Homo sapiens, UniProt Q00975+Q02410); type: protein assay
T4 sequence (Q00975 whole entry): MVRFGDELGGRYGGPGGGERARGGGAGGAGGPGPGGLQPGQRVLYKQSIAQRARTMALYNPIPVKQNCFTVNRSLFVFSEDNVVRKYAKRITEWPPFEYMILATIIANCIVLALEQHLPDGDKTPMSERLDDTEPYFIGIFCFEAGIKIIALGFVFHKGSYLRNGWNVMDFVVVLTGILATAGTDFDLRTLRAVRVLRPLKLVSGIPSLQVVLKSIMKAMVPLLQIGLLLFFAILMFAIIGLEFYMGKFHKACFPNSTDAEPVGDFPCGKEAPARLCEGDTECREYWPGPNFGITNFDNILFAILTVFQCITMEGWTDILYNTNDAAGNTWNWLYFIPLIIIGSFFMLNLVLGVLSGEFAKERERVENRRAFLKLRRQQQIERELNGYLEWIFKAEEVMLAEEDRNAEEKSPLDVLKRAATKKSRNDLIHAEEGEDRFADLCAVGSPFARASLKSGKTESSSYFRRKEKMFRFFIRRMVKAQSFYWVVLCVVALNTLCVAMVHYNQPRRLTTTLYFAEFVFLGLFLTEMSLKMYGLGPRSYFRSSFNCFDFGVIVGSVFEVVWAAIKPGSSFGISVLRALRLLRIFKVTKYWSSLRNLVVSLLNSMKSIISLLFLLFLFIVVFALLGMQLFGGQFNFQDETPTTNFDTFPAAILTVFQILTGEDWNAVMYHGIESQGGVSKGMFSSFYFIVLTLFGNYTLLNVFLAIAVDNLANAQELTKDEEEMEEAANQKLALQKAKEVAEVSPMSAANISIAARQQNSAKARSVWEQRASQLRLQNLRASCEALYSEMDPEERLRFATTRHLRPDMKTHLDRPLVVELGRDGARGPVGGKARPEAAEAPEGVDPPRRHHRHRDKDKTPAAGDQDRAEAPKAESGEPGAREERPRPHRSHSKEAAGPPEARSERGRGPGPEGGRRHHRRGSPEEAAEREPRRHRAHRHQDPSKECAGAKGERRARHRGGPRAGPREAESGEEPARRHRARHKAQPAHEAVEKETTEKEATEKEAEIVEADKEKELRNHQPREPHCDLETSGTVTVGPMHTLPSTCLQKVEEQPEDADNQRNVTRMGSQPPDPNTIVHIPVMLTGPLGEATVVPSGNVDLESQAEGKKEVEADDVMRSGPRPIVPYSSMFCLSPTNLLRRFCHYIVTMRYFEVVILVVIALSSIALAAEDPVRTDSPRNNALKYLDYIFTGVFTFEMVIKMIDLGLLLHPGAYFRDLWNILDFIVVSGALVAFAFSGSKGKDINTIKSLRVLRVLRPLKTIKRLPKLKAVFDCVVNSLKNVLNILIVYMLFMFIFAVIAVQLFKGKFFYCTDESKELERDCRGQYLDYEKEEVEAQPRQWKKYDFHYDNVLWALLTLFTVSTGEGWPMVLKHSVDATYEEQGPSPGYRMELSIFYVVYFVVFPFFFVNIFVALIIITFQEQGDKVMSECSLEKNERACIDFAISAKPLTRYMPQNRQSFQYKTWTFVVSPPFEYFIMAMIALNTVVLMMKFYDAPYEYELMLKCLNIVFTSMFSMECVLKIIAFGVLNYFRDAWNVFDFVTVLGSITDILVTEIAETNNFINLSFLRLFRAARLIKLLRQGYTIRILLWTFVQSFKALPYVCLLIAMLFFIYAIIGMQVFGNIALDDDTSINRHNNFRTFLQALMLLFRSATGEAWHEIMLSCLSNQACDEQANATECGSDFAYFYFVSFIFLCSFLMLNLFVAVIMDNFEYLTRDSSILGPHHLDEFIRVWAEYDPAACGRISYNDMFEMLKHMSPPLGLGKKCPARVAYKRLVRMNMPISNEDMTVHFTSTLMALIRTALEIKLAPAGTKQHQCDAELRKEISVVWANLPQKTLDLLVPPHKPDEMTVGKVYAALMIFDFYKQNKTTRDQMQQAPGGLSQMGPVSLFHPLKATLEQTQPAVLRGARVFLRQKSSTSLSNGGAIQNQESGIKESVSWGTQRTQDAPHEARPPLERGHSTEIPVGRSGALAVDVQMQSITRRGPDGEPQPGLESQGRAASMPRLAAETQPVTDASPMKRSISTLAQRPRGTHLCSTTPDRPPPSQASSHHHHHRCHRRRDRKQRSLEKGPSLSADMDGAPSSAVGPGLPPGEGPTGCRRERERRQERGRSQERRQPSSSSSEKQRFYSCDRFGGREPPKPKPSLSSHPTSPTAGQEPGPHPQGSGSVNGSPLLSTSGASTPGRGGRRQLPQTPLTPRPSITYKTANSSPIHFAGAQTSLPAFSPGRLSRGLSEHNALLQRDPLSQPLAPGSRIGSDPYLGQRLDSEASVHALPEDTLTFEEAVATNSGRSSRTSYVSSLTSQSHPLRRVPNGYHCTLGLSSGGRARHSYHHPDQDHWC
T4 sequence (Q02410 whole entry): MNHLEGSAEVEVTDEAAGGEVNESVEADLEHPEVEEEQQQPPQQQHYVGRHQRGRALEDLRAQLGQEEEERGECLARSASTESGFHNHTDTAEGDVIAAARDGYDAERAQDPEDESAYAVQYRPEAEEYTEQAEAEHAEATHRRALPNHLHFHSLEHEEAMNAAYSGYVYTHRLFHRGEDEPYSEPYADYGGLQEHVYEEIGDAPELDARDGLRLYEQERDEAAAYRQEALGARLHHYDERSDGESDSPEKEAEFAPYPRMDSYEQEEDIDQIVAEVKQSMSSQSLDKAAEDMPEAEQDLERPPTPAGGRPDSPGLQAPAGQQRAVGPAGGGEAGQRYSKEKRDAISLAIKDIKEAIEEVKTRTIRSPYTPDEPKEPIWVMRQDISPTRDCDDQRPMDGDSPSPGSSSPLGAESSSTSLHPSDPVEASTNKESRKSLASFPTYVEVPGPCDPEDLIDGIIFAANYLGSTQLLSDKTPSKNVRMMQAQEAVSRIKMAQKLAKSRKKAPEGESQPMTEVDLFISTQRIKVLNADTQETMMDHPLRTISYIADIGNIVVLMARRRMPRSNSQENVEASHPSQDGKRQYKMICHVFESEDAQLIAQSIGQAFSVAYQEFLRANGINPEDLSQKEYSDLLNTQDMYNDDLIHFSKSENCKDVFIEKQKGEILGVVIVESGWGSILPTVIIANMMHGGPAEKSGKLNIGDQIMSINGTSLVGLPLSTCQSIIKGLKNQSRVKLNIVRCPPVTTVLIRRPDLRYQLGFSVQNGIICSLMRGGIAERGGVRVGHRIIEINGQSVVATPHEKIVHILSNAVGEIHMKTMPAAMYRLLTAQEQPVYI

[7] = target: T4, Voltage-gated N-type calcium channel alpha-1B subunit/Amyloid beta A4 precursor protein-binding family A member 1; type: protein assay; remark: listed apart in the source
[8] = target: Induced myeloid leukemia cell differentiation protein Mcl-1 (Homo sapiens, UniProt Q07820); test: MCL1-BIM BH3 interaction inhibitors, dose response, biochemical, fluorescence polarization, BIM-BH3 peptide, 1536-well (AID 2217)
Bcl-2-like protein 1 = Bcl-2-like protein 1 (Homo sapiens, UniProt Q07817); test: BCL-XL inhibitors, dose response, selectivity assay for MCL1 inhibitor project, biochemical, fluorescence polarization, 1536-well (AID 2218)
Hexokinase HKDC1 = target: T5, Hexokinase HKDC1 (Homo sapiens, UniProt Q2TB90); test: HKDC1 hexokinase inhibitors, dose response, biochemical, W721R variant (AID 504729); type: functional
T5 sequence (Q2TB90 whole entry): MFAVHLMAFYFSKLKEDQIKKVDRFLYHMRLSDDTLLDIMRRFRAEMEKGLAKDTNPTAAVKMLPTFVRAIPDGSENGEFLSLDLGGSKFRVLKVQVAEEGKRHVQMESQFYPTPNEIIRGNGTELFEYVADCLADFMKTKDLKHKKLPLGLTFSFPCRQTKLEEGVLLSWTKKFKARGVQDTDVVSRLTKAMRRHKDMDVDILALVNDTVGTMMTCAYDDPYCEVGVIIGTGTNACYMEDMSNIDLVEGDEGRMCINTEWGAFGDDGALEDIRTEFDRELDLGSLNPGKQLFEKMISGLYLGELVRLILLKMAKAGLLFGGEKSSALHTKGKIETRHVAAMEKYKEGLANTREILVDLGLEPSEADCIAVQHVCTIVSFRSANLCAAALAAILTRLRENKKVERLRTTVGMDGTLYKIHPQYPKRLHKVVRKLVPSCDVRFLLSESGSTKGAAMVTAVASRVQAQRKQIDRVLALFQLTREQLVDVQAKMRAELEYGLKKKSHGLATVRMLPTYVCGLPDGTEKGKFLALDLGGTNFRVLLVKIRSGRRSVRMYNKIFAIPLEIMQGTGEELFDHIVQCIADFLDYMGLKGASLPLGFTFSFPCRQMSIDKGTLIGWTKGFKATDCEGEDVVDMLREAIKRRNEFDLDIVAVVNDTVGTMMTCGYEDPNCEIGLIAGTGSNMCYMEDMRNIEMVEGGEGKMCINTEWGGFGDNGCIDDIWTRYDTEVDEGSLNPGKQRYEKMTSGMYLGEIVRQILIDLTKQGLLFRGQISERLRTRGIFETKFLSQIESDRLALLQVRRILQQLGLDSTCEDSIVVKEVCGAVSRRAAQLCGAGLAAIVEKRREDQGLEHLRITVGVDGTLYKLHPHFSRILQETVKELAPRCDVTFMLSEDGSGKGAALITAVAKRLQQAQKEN

[9] = target: DNA (cytosine-5)-methyltransferase 1 (Homo sapiens, UniProt P26358); test: DNMT1 methyltransferase inhibitors, confirmation, biochemical, fluorescent molecular beacon (AID 602386); type: functional
Leucine aminopeptidase = target: T6, Leucine aminopeptidase (Plasmodium falciparum 3D7, UniProt Q8IL11); test: P. falciparum M17LAP inhibitors, primary screen, biochemical, fluorogenic H-Leu-NHMec substrate, 1536-well (AID 1619); type: functional
T6 sequence (Q8IL11 whole entry): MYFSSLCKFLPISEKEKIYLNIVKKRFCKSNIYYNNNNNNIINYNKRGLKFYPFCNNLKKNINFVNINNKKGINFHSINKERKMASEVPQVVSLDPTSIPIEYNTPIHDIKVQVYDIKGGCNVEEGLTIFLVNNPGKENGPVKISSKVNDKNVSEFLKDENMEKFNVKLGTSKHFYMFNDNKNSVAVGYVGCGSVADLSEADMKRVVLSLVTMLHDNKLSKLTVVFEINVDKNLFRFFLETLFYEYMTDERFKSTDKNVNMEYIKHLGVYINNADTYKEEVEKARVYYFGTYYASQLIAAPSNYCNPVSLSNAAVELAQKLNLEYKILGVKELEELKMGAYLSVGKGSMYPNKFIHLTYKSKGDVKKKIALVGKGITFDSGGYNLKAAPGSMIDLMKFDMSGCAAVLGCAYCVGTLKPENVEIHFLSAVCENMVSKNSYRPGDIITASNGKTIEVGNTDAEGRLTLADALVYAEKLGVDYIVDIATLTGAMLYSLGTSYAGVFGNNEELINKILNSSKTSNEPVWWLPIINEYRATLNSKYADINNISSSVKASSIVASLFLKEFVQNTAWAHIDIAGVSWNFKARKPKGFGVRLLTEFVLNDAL

Aspartyl aminopeptidase = Aspartyl aminopeptidase (Plasmodium falciparum 3D7, UniProt Q8I2J3); test: Counterscreen for inhibitors of M1 and M17 aminopeptidases: QFRET-based biochemical high throughput dose response assay for inhibitors of the Plasmodium falciparum M18 Aspartyl Aminopeptidase (PFM18AAP). [Related PubChem assays: 1619 (Screening assay (M17LAP inhibitors).), 1445 (Screening assay (M1AAP inhibitors).)]
Procathepsin L = Procathepsin L (Homo sapiens, UniProt P07711); test: cathepsin L inhibitors, dose response, counter-screen for M1/M17 aminopeptidase inhibitor project, biochemical, QFRET, 1536-well (AID 2214)
[10] = target: Protein-tyrosine kinase 2-beta (Homo sapiens, UniProt Q14289);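 note: potency of inhibitors of PYK2 kinase phosphorylation of poly-GT substrate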
Chain of Protein-tyrosine kinase 2-beta (Q14289 whole entry): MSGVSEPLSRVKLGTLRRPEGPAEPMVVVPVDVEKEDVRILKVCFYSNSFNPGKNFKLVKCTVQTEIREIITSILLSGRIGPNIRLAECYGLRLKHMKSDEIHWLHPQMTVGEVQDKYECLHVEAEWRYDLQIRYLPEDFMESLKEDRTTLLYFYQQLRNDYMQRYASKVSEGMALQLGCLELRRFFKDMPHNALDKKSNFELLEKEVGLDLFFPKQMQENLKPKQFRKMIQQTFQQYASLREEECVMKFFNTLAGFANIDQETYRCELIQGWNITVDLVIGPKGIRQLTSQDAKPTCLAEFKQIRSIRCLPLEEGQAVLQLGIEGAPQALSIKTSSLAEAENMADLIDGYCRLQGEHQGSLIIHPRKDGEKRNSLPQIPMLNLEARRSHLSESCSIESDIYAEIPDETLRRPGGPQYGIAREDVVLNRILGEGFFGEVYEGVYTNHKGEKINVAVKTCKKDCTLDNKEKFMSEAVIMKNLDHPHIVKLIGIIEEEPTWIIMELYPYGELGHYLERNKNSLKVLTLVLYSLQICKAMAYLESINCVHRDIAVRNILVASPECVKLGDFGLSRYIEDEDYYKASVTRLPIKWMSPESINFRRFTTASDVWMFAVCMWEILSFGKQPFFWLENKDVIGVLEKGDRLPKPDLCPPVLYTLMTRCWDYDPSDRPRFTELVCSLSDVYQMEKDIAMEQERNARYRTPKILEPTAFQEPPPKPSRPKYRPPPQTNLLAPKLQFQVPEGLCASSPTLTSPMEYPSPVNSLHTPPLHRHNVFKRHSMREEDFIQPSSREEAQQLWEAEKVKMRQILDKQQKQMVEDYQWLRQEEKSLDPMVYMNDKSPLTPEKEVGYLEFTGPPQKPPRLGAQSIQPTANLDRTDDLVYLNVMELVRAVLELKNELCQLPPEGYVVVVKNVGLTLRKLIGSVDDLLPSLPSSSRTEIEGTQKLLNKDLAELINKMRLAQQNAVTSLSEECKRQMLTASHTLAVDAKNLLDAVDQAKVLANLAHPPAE

Cytochrome P450 2C19 = Cytochrome P450 2C19 (Homo sapiens, UniProt P33261); test: Cytochrome panel assay with activity outcomes. Panel member name: p450-cyp2c19 Compounds with AC50 equal or less than 10 uM are considered active; type: functional; conditions: read-out: AC50
Cytochrome P450 2D6 = Cytochrome P450 2D6 (Homo sapiens, UniProt P10635);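 note: CYP2D6 member of a cytochrome P450 panel assay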
Cytochrome P450 2C9 = Cytochrome P450 2C9 (Homo sapiens, UniProt P11712)
[11] = Luminescence Cell-Based Dose Response HTS to Identify Inhibitors of 5'UTR Stem-Loop Driven Prion Protein mRNA Translation in H4 Neuroglioblastoma Cells. [Related pubchem assays: 1827 (Project Summary), 1813 (Primary HTS)]; type: functional
[12] = inhibitors of SNCA 5'UTR-driven reporter translation, confirmation, H4 neuroglioma cells, luminescence (AID 1988); type: functional, cell-based
[13] = Luminescence-based counterscreen assay for KLF5 inhibitors: dose response cell-based high throughput screening assay to identify cytotoxic compounds using the IEC-6 intestinal epithelial cell line. [Related pubchem assays: 1700 (Primary screen.), 1834 (Confirmation screen.), 1858 (Summary AID.), 1905 (Counterscreen.)]; type: functional
[14] = Luminescence Cell-Based Dose Confirmation HTS to Identify Activators of 5'UTR Stem-Loop Driven Alpha-Synuclein mRNA Translation in H4 Neuroglioblastoma Cells. [Related pubchem assays: 1829 (Project Summary), 1814 (Primary HTS)]; type: functional
[15] = Luminescence Cell-Based Dose Response HTS to Identify Activators of Luciferase Translation or Activity in H4 […] Cells. [Related pubchem assays: 1829 (Project Summary), 1814 (Primary HTS)]; type: functional
H4 = test: Luminescence Cell-Based Dose Response HTS to Identify Activators of 5'UTR Stem-Loop Driven Prion Protein mRNA Translation in H4 Neuroglioblastoma Cells. [Related pubchem assays: 1829 (Project Summary), 1814 (Primary HTS)]; type: functional; conditions: Homo sapiens
[16] = target: 5-hydroxytryptamine receptor 1E (Homo sapiens, UniProt P28566); test: Counterscreen assay for S1P3 antagonists: Dose response cell-based high throughput screening assay to identify antagonists of the 5-Hydroxytryptamine Receptor Subtype 1E (5HT1E). [Related pubchem assays: 1429, 485 ]; type: functional
[17] = target: Sphingosine 1-phosphate receptor 3 (Homo sapiens, UniProt Q99500); test: Dose response cell-based high throughput screening assay for antagonists of the Sphingosine 1-Phosphate Receptor 3 (S1P3). [Related pubchem assays: 1429, 485 ]; type: functional
[18] = target: Neurotensin receptor type 1 (Homo sapiens, UniProt P30989); type: functional;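 note: Image-based confirmatory dose-response assay measuring agonist activity at NTR1; NTR1-expressing U2OS osteosarcoma cells imaged for beta-arrestin GFP spot formation; agonist potency where compounds increase beta-arrestin recruitment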
[19] = cytotoxicity in HEK-293T cells, dose response, cytotoxicity control for TCR NF-kB inhibitor project, luminescence, T-cell screen hits (AID 489026); type: functional, cell-based;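 note: cells exposed to compound about 14 hours before the viability readout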
INS1 = test: beta cell apoptosis inhibitors, cytokine rescue, dose response, luminescence, retest (AID 449756); type: functional, cell-based; conditions: Rattus norvegicus;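 note: cell death triggered by IL-1 beta plus TNF-alpha plus IFN-gamma mixture; protective hits raise ATP signal compared with cytokine alone wells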
[20] = HepG2 cell cytotoxicity, dose response, cytotoxicity control, plate reader, cherry-pick, antagonist series (AID 743416); type: functional, cell-based
[21] = LGR2 antagonists, dose response, cell-based, HEK293, CRE-luciferase reporter, cherry pick, set 2 (AID 743343); type: functional;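 note: transfected cells were stimulated with diluted bursicon conditioned medium after compound addition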
[22] = MC4R antagonists, dose response, counter-screen for LGR2 antagonist project, cell-based, plate reader, cherry pick (AID 743444); type: functional;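 note: transfected HEK 293 cells stimulated with alpha-MSH peptide; potency of inhibitors of the alpha-MSH evoked signal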
[23] = target: Neuropeptide Y receptor type 1 (Homo sapiens, UniProt P25929); type: functional;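 note: HEK293 cells with a CNG channel challenged with NPY then isoproterenol; potency as antagonist that reverses NPY suppression of cAMP signal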
Chain of Neuropeptide Y receptor type 1 (P25929 whole entry): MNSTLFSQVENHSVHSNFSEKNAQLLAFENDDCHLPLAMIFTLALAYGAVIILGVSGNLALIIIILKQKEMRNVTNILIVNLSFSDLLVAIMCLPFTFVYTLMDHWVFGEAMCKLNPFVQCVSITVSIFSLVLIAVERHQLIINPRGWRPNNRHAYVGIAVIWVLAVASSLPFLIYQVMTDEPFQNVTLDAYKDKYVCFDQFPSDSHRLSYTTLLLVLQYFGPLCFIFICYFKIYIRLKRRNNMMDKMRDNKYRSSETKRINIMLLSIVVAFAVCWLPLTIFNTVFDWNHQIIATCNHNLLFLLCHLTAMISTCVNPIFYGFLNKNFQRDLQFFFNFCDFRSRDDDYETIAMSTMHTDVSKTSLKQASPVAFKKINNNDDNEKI

[24] = target: Neuropeptide Y receptor type 2 (Homo sapiens, UniProt P49146); type: functional, cell-based;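 note: HEK293 cells expressing the receptor and a CNG channel; stimulus was NPY near EC95 followed by isoproterenol to raise cAMP; antagonist potency measured as restoring cAMP signal that NPY suppresses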
[25] = inhibitors of HIV Env-driven cell fusion, dose response, cherry-pick (AID 652057); type: functional, cell-based
[26] = CEM21 lymphoblast cell cytotoxicity, dose response, cytotoxicity control for viral fusion inhibitor project, CellTiter-Glo luminescence, cherry-picked (AID 652042); type: functional, cell-based;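 note: potency for signal decrease meaning cytotoxicity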
[27] = off-target signal loss in HeLa-CEM21 co-culture – HeLa F-luc CTL cells, cherry-picked, counter-screen for HIV-1 Env fusion inhibitor project, dose response (AID 652040); type: functional, cell-based;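 note: potency for signal decrease marking cytotoxic or nonspecific inhibition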
[28] = CEM21 cell cytotoxicity, dose response, cytotoxicity control, plate reader, dry powder (AID 687026); type: functional, cell-based

T1 sequence (P08659 whole entry): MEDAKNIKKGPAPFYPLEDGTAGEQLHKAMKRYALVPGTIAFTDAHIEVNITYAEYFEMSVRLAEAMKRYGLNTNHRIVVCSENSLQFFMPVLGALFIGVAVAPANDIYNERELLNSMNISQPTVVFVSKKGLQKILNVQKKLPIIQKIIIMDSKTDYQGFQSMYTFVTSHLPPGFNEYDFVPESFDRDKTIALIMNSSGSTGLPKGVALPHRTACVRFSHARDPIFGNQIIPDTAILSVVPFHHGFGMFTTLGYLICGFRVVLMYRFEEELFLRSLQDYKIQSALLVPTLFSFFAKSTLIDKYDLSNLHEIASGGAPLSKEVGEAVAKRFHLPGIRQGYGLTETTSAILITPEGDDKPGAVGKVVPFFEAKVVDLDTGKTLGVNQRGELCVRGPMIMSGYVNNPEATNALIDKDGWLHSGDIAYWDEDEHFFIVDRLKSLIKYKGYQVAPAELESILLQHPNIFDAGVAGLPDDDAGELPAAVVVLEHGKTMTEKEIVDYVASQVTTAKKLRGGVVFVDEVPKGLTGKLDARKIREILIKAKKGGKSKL

## Cc1ccsc1/C=C1\CCc2ccccc2C1=O
[1]
  EC50: 0.89 µM (active)
[2]
  EC50: 0.518 µM (active)
[3]
  EC50: 2.43 µM (active)
HT-1080
  EC50: > 50 µM (not active)

## O=C(CNC(=O)/C=C/c1ccco1)N=Nc1c(O)[nH]c2ccccc12
[4]
  EC50: 13.1 µM (inconclusive)
[5]
  EC50: 5.49 µM (active)
[6]
  IC50: > 56.8 µM (not active)
[7]
  IC50: 4.97 µM (active)
[8]
  IC50: 9.7 µM (active)
Bcl-2-like protein 1
  IC50: 37.1 µM (not active)
Hexokinase HKDC1
  IC50: 25.3 µM (inactive)
[9]
  IC50: 3.25 µM (active)

## Cc1c(O)n(-c2ccccc2)c(SCC(=O)Nc2ccc3c4c(cccc24)CC3)nc1=O
Leucine aminopeptidase
  IC50: 5.11 µM (active)
Aspartyl aminopeptidase
  IC50: > 73.5 µM (not active)
Procathepsin L
  IC50: > 59.6 µM (not active)

## O=C(NCCc1c[nH]c2ccccc12)C1CCN(c2nnc(N3CCCC3=O)s2)CC1
[10]
  IC50: 22.7 µM (not active)
Cytochrome P450 2C19
  AC50: 7.94 µM (inconclusive)
Cytochrome P450 2D6
  AC50: 10 µM (inconclusive)
Cytochrome P450 2C9
  AC50: 10 µM (inconclusive)

## CN(C)c1ccc(/C=C/c2nc(O)c3ccccc3n2)cc1
[11]
  EC50: 4.08 µM (active)
[12]
  EC50: 5.96 µM (active)
[13]
  IC50: 32.3 µM (not active)

## COc1ccc(CC(=O)Nc2cccc(-c3nnc(-c4cccc(C)c4)o3)c2)cc1OC
[14]
  EC50: 15 µM (active)
[15]
  EC50: 6.16 µM (active)
H4
  EC50: 118 µM (active)
[16]
  IC50: 1.76 µM (active)
[17]
  IC50: 5.21 µM (active)
[18]
  EC50: 29.5 µM (inactive)
[19]
  IC50: 2.35 µM (active)
INS1
  AC50: 2.47 µM (active)
[20]
  AC50: 47.6 µM (active)
[21]
  AC50: 8.16 µM (active)
[22]
  AC50: 10.5 µM (active)

## COc1ccccc1CCNCc1ccc(OC)c(OCc2ccccc2)c1
[23]
  IC50: 9.05 µM (active)
[24]
  IC50: 1.97 µM (active)
[25]
  AC50: 2.11 µM (active)
[26]
  AC50: 54.1 µM (active)
[27]
  AC50: > 70 µM (inactive)
[28]
  AC50: > 70 µM (inactive)
